Our source for the Activity and Km values is ChEMBL document CHEMBL2074169, “Contribution of organic anion transporting polypeptide to uptake of its possible substrates into rat hepatocytes” (J Pharmacol Exp Ther, 1999).

Data set [1] concerns the target T1, Solute carrier organic anion transporter family member 1A1 (Rattus norvegicus, UniProt P46720).
T1 sequence (P46720 whole entry): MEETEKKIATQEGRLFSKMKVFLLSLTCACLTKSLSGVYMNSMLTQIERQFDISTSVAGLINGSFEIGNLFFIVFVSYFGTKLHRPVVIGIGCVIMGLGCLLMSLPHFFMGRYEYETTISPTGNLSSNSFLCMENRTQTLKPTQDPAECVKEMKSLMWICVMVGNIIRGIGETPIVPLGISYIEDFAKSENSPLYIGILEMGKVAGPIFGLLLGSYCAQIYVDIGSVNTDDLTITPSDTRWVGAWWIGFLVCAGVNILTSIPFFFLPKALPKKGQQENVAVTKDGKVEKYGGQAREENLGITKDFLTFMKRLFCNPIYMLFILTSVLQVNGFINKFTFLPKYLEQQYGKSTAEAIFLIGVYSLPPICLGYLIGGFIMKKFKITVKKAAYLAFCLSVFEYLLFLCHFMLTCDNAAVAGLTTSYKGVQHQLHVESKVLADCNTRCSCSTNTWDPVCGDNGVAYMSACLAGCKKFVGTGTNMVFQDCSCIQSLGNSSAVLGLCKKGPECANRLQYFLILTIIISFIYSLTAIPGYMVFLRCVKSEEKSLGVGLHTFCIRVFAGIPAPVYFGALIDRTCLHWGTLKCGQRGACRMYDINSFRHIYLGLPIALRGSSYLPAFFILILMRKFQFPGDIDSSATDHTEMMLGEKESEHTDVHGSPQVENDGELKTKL
The data set can be described thus: (§1) TP_TRANSPORTER: uptake in Oatp1-expressing COS-7 cells. It counts as functional, cell-based. The following applies: monkey.

Substrate in data set [2]: C[C@]12CC[C@@H]3c4ccc(O)cc4CC[C@H]3[C@@H]1CC[C@@H]2O[C@@H]1O[C@H](C(=O)O)[C@@H](O)[C@H](O)[C@H]1O
The data set is described as §1. It counts as functional, cell-based.

Where a name gives a salt, the structure may show the parent alone.

In the case of `CNc1nc2c(Cc3cccnc3)c(C)c(OS(=O)(=O)O)c(C)c2s1` [E3040 SULFATE], the Activity result in data set [1] is “substrate [+]”.

Consider `C[C@]12CC[C@@H]3c4ccc(OS(=O)(=O)O)cc4CC[C@H]3[C@@H]1CCC2=O` [ESTRONE SULFURIC ACID], for which the Activity entry in data set [1] is “substrate [+]”.

B1: Solute carrier organic anion transporter family member 1A1 (Rattus norvegicus) (protein)
chain: T1 sequence (P46720 whole entry)
With B1, the Michaelis constant (Km) in data set [2] is 20.4 µM.
